Data as given in patent US9884063B2, “Amido-substituted azole compounds” (Bayer Pharma Aktiengesellschaft, priority 2014, dated 2018).
Counter-ions that a name gives are not always drawn.

How the values were obtained:
TNKS2 = biological target: T1, TNKS2 (Homo sapiens, UniProt Q9H2K2); test: Modified TNKS2 Assay 3 (BPS kit #80578, biotin-NAD+, 96 well); type: biochemical; details: human TNKS2, BPS kit #80578, 96 well
T1 sequence (Q9H2K2 1-1166): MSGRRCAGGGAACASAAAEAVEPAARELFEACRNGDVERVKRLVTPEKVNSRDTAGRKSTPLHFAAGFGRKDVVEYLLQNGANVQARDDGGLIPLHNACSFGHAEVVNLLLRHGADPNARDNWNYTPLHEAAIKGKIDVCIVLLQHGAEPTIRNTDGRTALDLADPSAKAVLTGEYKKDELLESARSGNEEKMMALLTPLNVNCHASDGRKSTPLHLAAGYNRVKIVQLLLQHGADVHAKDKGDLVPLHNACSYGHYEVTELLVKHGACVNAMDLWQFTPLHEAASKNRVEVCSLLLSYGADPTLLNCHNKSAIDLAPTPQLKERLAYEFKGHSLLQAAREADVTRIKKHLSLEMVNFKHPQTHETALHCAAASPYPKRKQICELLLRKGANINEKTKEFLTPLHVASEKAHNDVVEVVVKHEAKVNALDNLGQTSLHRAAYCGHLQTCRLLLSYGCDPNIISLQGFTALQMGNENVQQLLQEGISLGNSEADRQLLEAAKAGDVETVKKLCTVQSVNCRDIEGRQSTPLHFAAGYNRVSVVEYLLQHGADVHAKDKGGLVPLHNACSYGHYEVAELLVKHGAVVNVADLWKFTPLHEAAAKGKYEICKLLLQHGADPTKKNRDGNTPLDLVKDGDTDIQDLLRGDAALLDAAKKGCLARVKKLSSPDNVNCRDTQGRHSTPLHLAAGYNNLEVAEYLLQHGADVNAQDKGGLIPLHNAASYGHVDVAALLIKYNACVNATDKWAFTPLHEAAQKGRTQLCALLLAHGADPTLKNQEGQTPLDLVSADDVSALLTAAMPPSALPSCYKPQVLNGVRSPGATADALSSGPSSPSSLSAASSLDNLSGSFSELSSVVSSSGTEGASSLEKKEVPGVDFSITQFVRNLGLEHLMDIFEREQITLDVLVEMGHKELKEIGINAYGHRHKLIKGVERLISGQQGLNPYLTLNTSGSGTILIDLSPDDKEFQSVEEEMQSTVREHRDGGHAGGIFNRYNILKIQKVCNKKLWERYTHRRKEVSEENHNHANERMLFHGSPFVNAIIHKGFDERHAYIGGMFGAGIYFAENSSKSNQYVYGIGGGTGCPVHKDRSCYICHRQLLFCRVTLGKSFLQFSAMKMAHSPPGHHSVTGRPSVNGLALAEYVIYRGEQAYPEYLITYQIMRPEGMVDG
Method: (§1) The potency of the compounds against human TNKS2 according to the invention was assessed using a commercially available biotin/streptavidin binding assay kits from BPS Bioscience, San Diego, USA (Catalog #80578 for TNKS2). The incorporation of a biotin-labeled NAD+ during the […] catalyzed ribosylation of a suitable protein substrate was detected using with a streptavidin-HRP coupled chemi-luminescent readout. The intensity of the readout signal is proportional to the incorporated NAD^+. Inhibition of TNKS2 leads to a decreased incorporation of NAD^+ and consequently to a lower readout signal intensity in the corresponding TNKS2 assays. The concentration of a test compound that inhibits the enzyme activity by 50% (corresponds to half of the normed readout signal intensity) is reported as IC50. The assay conducted in a 96 well MTP format according to the manufacturer's protocol and using a BMG Pherastar MTP reader [BMG-Labtech, Offenburg, Germany].

[1] = tested on: wildtype Wnt signaling cascade; test: HEK293 TOP Assay (Super TopFlash luciferase reporter, Wnt-3a stimulated); type: cell-based; details: Homo sapiens, HEK293 TOP reporter cell line, Wnt-3a at EC50, 16 hours incubation, compound dilution series 50 μM to 15 nM
Method in brief: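 Compounds (50 μM down to 15 nM, 3.16-fold steps, in CAFTY buffer pH 7.4, 2 mM Ca2+, 0.01% BSA) tested in parallel on TOP and FOP HEK293 reporter lines to define selective wildtype Wnt inhibition. Pathway driven by recombinant human Wnt-3a applied at 2500–5 ng/ml in two-fold dilutions.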

TNKS1 = biological target: T2, TNKS1 (Homo sapiens, UniProt O95271); test: Modified TNKS1 Assay 3 (BPS kit #80573, biotin-NAD+, 96 well); type: biochemical; details: human TNKS1, BPS kit #80573, 96 well
T2 sequence (O95271 1-1327): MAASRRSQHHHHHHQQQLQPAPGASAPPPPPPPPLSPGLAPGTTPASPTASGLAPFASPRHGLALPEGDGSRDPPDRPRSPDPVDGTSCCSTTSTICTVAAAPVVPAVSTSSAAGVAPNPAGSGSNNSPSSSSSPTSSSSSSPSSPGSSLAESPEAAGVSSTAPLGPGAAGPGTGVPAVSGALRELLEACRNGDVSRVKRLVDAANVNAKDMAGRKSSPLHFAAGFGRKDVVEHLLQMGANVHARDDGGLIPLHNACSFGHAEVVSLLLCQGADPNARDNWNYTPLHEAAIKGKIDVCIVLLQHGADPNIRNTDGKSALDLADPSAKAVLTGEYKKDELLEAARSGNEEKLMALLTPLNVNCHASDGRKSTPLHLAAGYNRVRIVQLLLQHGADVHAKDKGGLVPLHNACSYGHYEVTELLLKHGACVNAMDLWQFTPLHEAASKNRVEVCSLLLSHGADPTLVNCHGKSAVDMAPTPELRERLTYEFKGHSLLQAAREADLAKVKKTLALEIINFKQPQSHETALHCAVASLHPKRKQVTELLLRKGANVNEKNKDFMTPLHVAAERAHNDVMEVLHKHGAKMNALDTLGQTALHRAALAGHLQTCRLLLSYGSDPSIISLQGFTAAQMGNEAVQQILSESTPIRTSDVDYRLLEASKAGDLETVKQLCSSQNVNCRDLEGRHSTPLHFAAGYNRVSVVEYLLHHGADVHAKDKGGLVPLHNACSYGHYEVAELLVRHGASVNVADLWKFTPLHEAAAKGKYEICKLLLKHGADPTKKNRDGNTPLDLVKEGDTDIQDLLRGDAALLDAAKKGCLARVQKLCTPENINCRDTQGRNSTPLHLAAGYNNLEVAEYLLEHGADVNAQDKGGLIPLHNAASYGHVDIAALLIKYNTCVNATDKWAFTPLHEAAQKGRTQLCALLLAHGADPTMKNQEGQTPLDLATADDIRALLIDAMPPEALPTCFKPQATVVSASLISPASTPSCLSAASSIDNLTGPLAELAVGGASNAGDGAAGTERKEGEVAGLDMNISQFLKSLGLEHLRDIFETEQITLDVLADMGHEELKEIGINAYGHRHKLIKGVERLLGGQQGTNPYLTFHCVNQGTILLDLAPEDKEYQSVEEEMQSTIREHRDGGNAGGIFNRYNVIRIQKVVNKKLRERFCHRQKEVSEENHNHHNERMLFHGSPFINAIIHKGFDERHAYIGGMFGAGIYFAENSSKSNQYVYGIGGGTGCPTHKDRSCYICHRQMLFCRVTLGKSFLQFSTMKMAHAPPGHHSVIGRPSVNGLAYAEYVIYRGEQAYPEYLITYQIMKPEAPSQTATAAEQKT
Method: as §1, with “against human TNKS1 according to” for “against human TNKS2 according to”, “USA (Catalog #80573 for TNKS1).” for “USA (Catalog #80578 for TNKS2).”, “#80573 for TNKS1). The incorporation” for “#80578 for TNKS2). The incorporation”, “Inhibition of TNKS1 leads to” for “Inhibition of TNKS2 leads to”, “the corresponding TNKS1 assays. The” for “the corresponding TNKS2 assays. The”, “The assay was conducted in” for “The assay conducted in”

[2] = tested on: HEK293 FOP control reporter cell line; test: HEK293 FOP Assay (FOP control vector luciferase reporter); type: cell-based; details: Homo sapiens, HEK293 FOP control reporter cell line, 16 hours incubation, compound dilution series 50 μM to 15 nM
Method in brief: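 Compound series 50 μM to 15 nM, 3.16-fold steps, were diluted in CAFTY buffer (pH 7.4, 2 mM Ca2+, 0.01% BSA) and tested alongside the TOP reporter line. Human Wnt-3a was added at 2500–5 ng/ml in two-fold steps. The control HEK293 line stably holds an FOP vector whose TCF elements are randomized and non-functional.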

Structure (SMILES)	IC50 (TNKS2) [µM]	IC50 ([1]; HEK293, 16 h) [µM]	IC50 (TNKS1) [µM]	IC50 [2] [µM]	IC50 ([2]; HEK293, 16 h) [µM]	IC50 [1] [µM]
CC(C)(CNC(=O)c1[nH]cnc1C(=O)Nc1ccc(NC(=O)c2ccc(F)cc2Cl)cc1)N1CCCCC1 [Example 159, N^4-{4-[(2-chloro-4-fluorobenzoyl)amino]phenyl}-N^5-[2-methyl-2-(piperidin-1-yl)propyl]-1H-imidazole-4,5-dicarboxamide]	0.002	0.09	–	–	–	–
CC(CN1CCOCC1)NC(=O)c1[nH]cnc1C(=O)Nc1ccc(NC(=O)c2ccccc2Cl)cc1 (stereo not drawn) [Example 162, N^4-{4-[(2-chlorobenzoyl)amino]phenyl}-N^5-[1-(morpholin-4-yl)propan-2-yl]-1H-imidazole-4,5-dicarboxamide]	0.02	0.27	–	–	–	–
CNC(=O)c1nc[nH]c1C(=O)Nc1ccc(NC(=O)c2ccc(F)cc2Cl)c(F)c1 [Example 72, N^5-{4-[(2-chloro-4-fluorobenzoyl)amino]-3-fluorophenyl}-N^4-methyl-1H-imidazole-4,5-dicarboxamide]	0.06	0.49	–	–	–	–
O=C(Nc1ccc(NC(=O)c2[nH]cnc2C(=O)NCCN2CCCCC2)cc1)c1ccc(F)cc1Cl [Example 127, N^5-{4-[(2-chloro-4-fluorobenzoyl)amino]phenyl}-N^4-[2-(piperidin-1-yl)ethyl]-1H-imidazole-4,5-dicarboxamide hydrochloride]	–	–	0.002	–	50	0.01
CC(C)(N)CCNC(=O)c1[nH]cnc1C(=O)Nc1ccc(NC(=O)c2ccccc2Cl)cc1 [Example 283, N^5-(3-amino-3-methylbutyl)-N^4-{4-[(2-chlorobenzoyl)amino]phenyl}-1H-imidazole-4,5-dicarboxamide hydrochloride salt]	–	–	0.11	–	50	0.84

Second part, led by results:

IC50 (TNKS2) [µM]	IC50 ([1]; HEK293, 16 h) [µM]	IC50 (TNKS1) [µM]	Structure (SMILES)	IC50 [2] [µM]	IC50 ([2]; HEK293, 16 h) [µM]	IC50 [1] [µM]
< 0.0005	0.11	–	O=C(Nc1ccc(NC(=O)c2nc[nH]c2C(=O)NCCN2CCC2)cc1)c1ccc(F)cc1Cl [Example 198, N^5-[2-(azetidin-1-yl)ethyl]-N^4-{4-[(2-chloro-4-fluorobenzoyl)amino]phenyl}-1H-imidazole-4,5-dicarboxamide]	–	–	–
0.002	0.18	–	CC(CNC(=O)c1[nH]cnc1C(=O)Nc1ccc(NC(=O)c2ccc(F)cc2Cl)cc1)N1CCCCC1 (stereo not drawn) [Example 170, N^4-{4-[(2-chloro-4-fluorobenzoyl)amino]phenyl}-N^5-[2-(piperidin-1-yl)propyl]-1H-imidazole-4,5-dicarboxamide]	–	–	–
0.02	0.2	–	CC(CNC(=O)c1[nH]cnc1C(=O)Nc1ccc(NC(=O)c2ccc(F)cc2Cl)cc1)N1CCN(C)CC1 (stereo not drawn) [Example 185, N^4-{4-[(2-chloro-4-fluorobenzoyl)amino]phenyl}-N^5-[2-(4-methylpiperazin-1-yl)propyl]-1H-imidazole-4,5-dicarboxamide]	–	–	–
–	1.55	0.03	O=C(Nc1ccc(NC(=O)c2nc[nH]c2C(=O)NCCCN2CCCC(O)C2)cc1)c1ccc(F)cc1Cl (stereo not drawn) [Example 273, N^4-{4-[(2-chloro-4-fluorobenzoyl)amino]phenyl}-N^5-[3-(3-hydroxypiperidin-1-yl)propyl]-1H-imidazole-4,5-dicarboxamide]	21	–	–
–	0.11	0.09	CN1CCCCC1CNC(=O)c1nc[nH]c1C(=O)Nc1ccc(NC(=O)c2ccc(F)cc2Cl)cc1 (stereo not drawn) [Example 410, N^5-{4-[(2-chloro-4-fluorobenzoyl)amino]phenyl}-N^4-[(1-methylpiperidin-2-yl)methyl]-1H-imidazole-4,5-dicarboxamide]	18	–	–
–	0.19	0.08	CCN1CCC(CNC(=O)c2nc[nH]c2C(=O)Nc2ccc(NC(=O)c3ccc(F)cc3Cl)cc2)CC1 [Example 409, N^5-{4-[(2-chloro-4-fluorobenzoyl)amino]phenyl}-N^4-[(1-ethylpiperidin-4-yl)methyl]-1H-imidazole-4,5-dicarboxamide]	32	–	–
